Measured values: ChEMBL document CHEMBL1201861, “Genomics of Drug Sensitity in Cancer screening data, Wellcome Trust Sanger Institute”

What was measured:
Experiment in all cases: cells
Conditions in all cases: Homo sapiens
CW-2 = format: functional, cell-based;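 further: growth inhibition of CW-2 cells, read out by a cell viability assay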
Description: SANGER: Inhibition of human CW-2 cell growth in a cell viability assay.

CP66-MEL = format: functional, cell-based;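 further: growth inhibition of CP66-MEL cells determined in a cell viability assay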
Description: SANGER: Inhibition of human CP66-MEL cell growth in a cell viability assay.

MSTO-211H = format: functional, cell-based
Description: SANGER: Inhibition of human MSTO-211H cell growth in a cell viability assay.

MPP-89 = format: functional, cell-based;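 further: growth inhibition of human MPP-89 cells, read out with a cell viability assay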
Description: SANGER: Inhibition of human MPP-89 cell growth in a cell viability assay.

NCI-H226 = format: functional, cell-based;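 further: cell viability read-out used to gauge growth inhibition of the cells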
Description: SANGER: Inhibition of human NCI-H226 cell growth in a cell viability assay.

NCI-H510A = format: functional, cell-based;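 further: growth inhibition of NCI-H510A cells, read out with a cell viability assay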
Description: SANGER: Inhibition of human NCI-H510A cell growth in a cell viability assay.

NH-12 = format: functional, cell-based;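 further: growth inhibition of NH-12 cells, read out with a cell viability assay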
Description: SANGER: Inhibition of human NH-12 cell growth in a cell viability assay.

Mo = format: functional, cell-based
Description: SANGER: Inhibition of human Mo-T cell growth in a cell viability assay.

LC-2-ad = format: functional, cell-based;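 further: growth inhibition of human LC-2-ad cells, read out with a cell viability assay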
Description: SANGER: Inhibition of human LC-2-ad cell growth in a cell viability assay.

NB10 = format: functional, cell-based;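 further: growth inhibition of NB10 cells, read out by a cell viability assay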
Description: SANGER: Inhibition of human NB10 cell growth in a cell viability assay.

NCI-H1648 = format: functional, cell-based;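 further: cell viability assay measuring inhibition of NCI-H1648 cell growth, from the Sanger screening data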
Description: SANGER: Inhibition of human NCI-H1648 cell growth in a cell viability assay.

U-266 = format: functional, cell-based
Description: SANGER: Inhibition of human U-266 cell growth in a cell viability assay.

NB5 = format: functional, cell-based;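 further: growth inhibition of NB5 cells, read out as cell viability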
Description: SANGER: Inhibition of human NB5 cell growth in a cell viability assay.

U-87 MG = format: functional, cell-based, U-87MG ATCC;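 further: growth inhibition of the cells measured with a viability assay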
Description: SANGER: Inhibition of human U-87-MG cell growth in a cell viability assay.

HH = format: functional, cell-based
Description: SANGER: Inhibition of human HH cell growth in a cell viability assay.

HEL = format: functional, cell-based;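 further: growth inhibition of HEL cells, read out with a cell viability assay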
Description: SANGER: Inhibition of human HEL cell growth in a cell viability assay.

MZ1-PC = format: functional, cell-based;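 further: cell viability assay measuring growth inhibition of human MZ1-PC cells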
Description: SANGER: Inhibition of human MZ1-PC cell growth in a cell viability assay.

COLO-684 = format: functional, cell-based
Description: SANGER: Inhibition of human COLO-684 cell growth in a cell viability assay.

NCI-H1092 = format: functional, cell-based;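 further: cell growth inhibition measured with a cell viability assay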
Description: SANGER: Inhibition of human NCI-H1092 cell growth in a cell viability assay.

OCUB-M = format: functional, cell-based;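 further: growth inhibition of the cancer cell line, read out through a cell viability assay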
Description: SANGER: Inhibition of human OCUB-M cell growth in a cell viability assay.

TE-9 = format: functional, cell-based;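 further: cell growth inhibition, measured with a cell viability readout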
Description: SANGER: Inhibition of human TE-9 cell growth in a cell viability assay.

MN-60 = format: functional, cell-based;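 further: growth inhibition of the MN-60 cell line, determined with a cell viability assay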
Description: SANGER: Inhibition of human MN-60 cell growth in a cell viability assay.

MEG-01 = format: functional, cell-based;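 further: growth inhibition of MEG-01 cells, read out by a cell viability assay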
Description: SANGER: Inhibition of human MEG-01 cell growth in a cell viability assay.

DEL = format: functional, cell-based;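 further: growth inhibition of the human DEL cell line, read out with a cell viability assay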
Description: SANGER: Inhibition of human DEL cell growth in a cell viability assay.

SNU1 = format: functional, cell-based;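 further: growth inhibition of human NCI-SNU-1 cells, measured with a cell viability assay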
Description: SANGER: Inhibition of human NCI-SNU-1 cell growth in a cell viability assay.

KNS-42 = format: functional, cell-based;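 further: growth inhibition of KNS-42 cells, read out with a cell viability assay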
Description: SANGER: Inhibition of human KNS-42 cell growth in a cell viability assay.

SNB-75 = format: functional, cell-based;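 further: cell viability assay measuring growth inhibition of human SNB-75 cells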
Description: SANGER: Inhibition of human SNB75 cell growth in a cell viability assay.

AM-38 = format: functional, cell-based;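 further: growth inhibition of AM-38 cells of human origin, read out by a cell viability assay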
Description: SANGER: Inhibition of human AM-38 cell growth in a cell viability assay.

MFM-223 = format: functional, cell-based
Description: SANGER: Inhibition of human MFM-223 cell growth in a cell viability assay.

8-MG-BA = format: functional, cell-based;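 further: growth inhibition of 8-MG-BA cells, read out with a cell viability assay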
Description: SANGER: Inhibition of human 8-MG-BA cell growth in a cell viability assay.

ALL-PO = format: functional, cell-based;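 further: growth inhibition of ALL-PO cells, read out by a cell viability assay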
Description: SANGER: Inhibition of human ALL-PO cell growth in a cell viability assay.

TE-12 = format: functional, cell-based;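 further: growth inhibition of TE-12 cells, read out by a cell viability assay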
Description: SANGER: Inhibition of human TE-12 cell growth in a cell viability assay.

LU-139 = format: functional, cell-based
Description: SANGER: Inhibition of human LU-139 cell growth in a cell viability assay.

CGTH-W-1 = format: functional, cell-based;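 further: growth inhibition of human CGTH-W-1 cells measured by cell viability assay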
Description: SANGER: Inhibition of human CGTH-W-1 cell growth in a cell viability assay.

SW684 = format: functional, cell-based;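 further: growth inhibition of human SW684 cells, measured by a cell viability assay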
Description: SANGER: Inhibition of human SW684 cell growth in a cell viability assay.

LOX IMVI = format: functional, cell-based
Description: SANGER: Inhibition of human LOXIMVI cell growth in a cell viability assay.

D283 Med = format: functional, cell-based
Description: SANGER: Inhibition of human D-283MED cell growth in a cell viability assay.

no-11 = format: functional, cell-based;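 further: growth inhibition of human NO-11 cells, read out with a cell viability assay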
Description: SANGER: Inhibition of human no-11 cell growth in a cell viability assay.

COLO-824 = format: functional, cell-based
Description: SANGER: Inhibition of human COLO-824 cell growth in a cell viability assay.

Lu-65 = format: functional, cell-based;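 further: growth inhibition of Lu-65 cancer cells, read out by a cell viability assay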
Description: SANGER: Inhibition of human LU-65 cell growth in a cell viability assay.

TE-1 = format: functional, cell-based
Description: SANGER: Inhibition of human TE-1 cell growth in a cell viability assay.

KU812 cell line = format: functional, cell-based;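 further: growth inhibition of KU812 cells, read out with a cell viability assay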
Description: SANGER: Inhibition of human KU812 cell growth in a cell viability assay.

NCI-H23 = format: functional, cell-based;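 further: cell viability assay measuring growth inhibition of NCI-H23 cells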
Description: SANGER: Inhibition of human NCI-H23 cell growth in a cell viability assay.

KP-N-YS = format: functional, cell-based;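 further: cell viability assay measuring inhibition of cell line growth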
Description: SANGER: Inhibition of human KP-N-YS cell growth in a cell viability assay.

CTV-1 = format: functional, cell-based;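 further: growth inhibition of the cell line, read out with a cell viability assay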
Description: SANGER: Inhibition of human CTV-1 cell growth in a cell viability assay.

DB = format: functional, cell-based
Description: SANGER: Inhibition of human DB cell growth in a cell viability assay.

KURAMOCHI = format: functional, cell-based;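 further: growth inhibition of KURAMOCHI cells, read out with a cell viability assay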
Description: SANGER: Inhibition of human KURAMOCHI cell growth in a cell viability assay.

GI-ME-N = format: functional, cell-based;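 further: growth inhibition of human GI-ME-N cells, read out with a cell viability assay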
Description: SANGER: Inhibition of human GI-ME-N cell growth in a cell viability assay.

SW 954 = format: functional, cell-based;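 further: growth inhibition of SW954 human cancer cells, read out as cell viability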
Description: SANGER: Inhibition of human SW954 cell growth in a cell viability assay.

NOS-1 = format: functional, cell-based;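 further: growth inhibition of the human NOS-1 cell line, read out with a cell viability assay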
Description: SANGER: Inhibition of human NOS-1 cell growth in a cell viability assay.

TK-10 = format: functional, cell-based;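 further: growth inhibition of TK-10 cells, read out in a cell viability assay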
Description: SANGER: Inhibition of human TK10 cell growth in a cell viability assay.

NTERA-2-cl-D1 = format: functional, cell-based;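 further: inhibition of cell growth, measured with a cell viability assay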
Description: SANGER: Inhibition of human NTERA-S-cl-D1 cell growth in a cell viability assay.

KINGS-1 = format: functional, cell-based;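 further: cell viability assay measuring suppression of KINGS-1 cell growth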
Description: SANGER: Inhibition of human KINGS-1 cell growth in a cell viability assay.

KALS-1 = format: functional, cell-based;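 further: growth inhibition of KALS-1 cells, determined with a cell viability assay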
Description: SANGER: Inhibition of human KALS-1 cell growth in a cell viability assay.

DMS-79 = format: functional, cell-based;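 further: growth inhibition measured with a cell viability assay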
Description: SANGER: Inhibition of human DMS-79 cell growth in a cell viability assay.

SCC-15 = format: functional, cell-based;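 further: growth inhibition of SCC-15 cells, read out with a cell viability assay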
Description: SANGER: Inhibition of human SCC-15 cell growth in a cell viability assay.

RH-1 = format: functional, cell-based;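 further: growth inhibition of human RH-1 cells, read out with a cell viability assay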
Description: SANGER: Inhibition of human RH-1 cell growth in a cell viability assay.

MS-1 = format: functional, cell-based;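 further: growth inhibition of MS-1 cells, read out by cell viability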
Description: SANGER: Inhibition of human MS-1 cell growth in a cell viability assay.

NCI-H1770 = format: functional, cell-based;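 further: growth inhibition of NCI-H1770 cells determined with a viability readout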
Description: SANGER: Inhibition of human NCI-H1770 cell growth in a cell viability assay.

NEC8 = format: functional, cell-based;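 further: growth inhibition of human NEC8 cells, read out by a cell viability assay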
Description: SANGER: Inhibition of human NEC8 cell growth in a cell viability assay.

UACC-257 = format: functional, cell-based
Description: SANGER: Inhibition of human UACC-257 cell growth in a cell viability assay.

CAS-1 = format: functional, cell-based;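 further: growth inhibition of CAS-1 cells, measured with a cell viability assay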
Description: SANGER: Inhibition of human CAS-1 cell growth in a cell viability assay.

TE-11 = format: functional, cell-based
Description: SANGER: Inhibition of human TE-11 cell growth in a cell viability assay.

SW982 = format: functional, cell-based
Description: SANGER: Inhibition of human SW982 cell growth in a cell viability assay.

In the case of Cc1ccc(NC(=O)c2cccc(C(C)(C)C#N)c2)cc1Nc1ccc2ncn(C)c(=O)c2c1, the IC50 (CW-2) is reported as greater than 4000 nM, the IC50 (CP66-MEL) is reported as 132 nM and the IC50 (MSTO-211H) is reported as 3950 nM. The IC50 (MPP-89) was greater than 4000 nM, the IC50 (NCI-H226) was greater than 4000 nM and the IC50 (NCI-H510A) was greater than 4000 nM. For the same molecule, the IC50 (NH-12) was greater than 4000 nM, the IC50 (Mo) was greater than 4000 nM and the IC50 (LC-2-ad) was greater than 4000 nM. It also gave an IC50 (NB10) greater than 4000 nM, an IC50 (NCI-H1648) of 673 nM and an IC50 (U-266) greater than 4000 nM. The IC50 (NB5) was 1950 nM, the IC50 (U-87 MG) was greater than 4000 nM and the IC50 (HH) was greater than 4000 nM. For the same molecule, the IC50 (HEL) was greater than 4000 nM, the IC50 (MZ1-PC) was 280 nM and the IC50 (COLO-684) was greater than 4000 nM. It also gave an IC50 (NCI-H1092) greater than 4000 nM, an IC50 (OCUB-M) greater than 4000 nM and an IC50 (TE-9) greater than 4000 nM. The IC50 (MN-60) was greater than 4000 nM, the IC50 (MEG-01) was 376 nM and the IC50 (DEL) was greater than 4000 nM. The IC50 (SNU1) was 448 nM, the IC50 (KNS-42) was greater than 4000 nM and the IC50 (SNB-75) was greater than 4000 nM. The IC50 (AM-38) was greater than 4000 nM, the IC50 (MFM-223) was greater than 4000 nM and the IC50 (8-MG-BA) was greater than 4000 nM. It also gave an IC50 (ALL-PO) of 1350 nM, an IC50 (TE-12) of 1310 nM and an IC50 (LU-139) greater than 4000 nM. The IC50 (CGTH-W-1) was 121 nM, the IC50 (SW684) was greater than 4000 nM and the IC50 (LOX IMVI) was greater than 4000 nM. The IC50 (D283 Med) was greater than 4000 nM, the IC50 (no-11) was greater than 4000 nM and the IC50 (COLO-824) was greater than 4000 nM. The IC50 (Lu-65) was greater than 4000 nM, the IC50 (TE-1) was greater than 4000 nM and the IC50 (KU812 cell line) was greater than 4000 nM. It also gave an IC50 (NCI-H23) greater than 4000 nM, an IC50 (KP-N-YS) greater than 4000 nM and an IC50 (CTV-1) of 1200 nM. For the same molecule, the IC50 (DB) was greater than 4000 nM, the IC50 (KURAMOCHI) was greater than 4000 nM and the IC50 (GI-ME-N) was 1290 nM. It also gave an IC50 (SW 954) greater than 4000 nM, an IC50 (NOS-1) of 92.7 nM and an IC50 (TK-10) greater than 4000 nM. The IC50 (NTERA-2-cl-D1) was greater than 4000 nM, the IC50 (KINGS-1) was greater than 4000 nM and the IC50 (KALS-1) was greater than 4000 nM. For the same molecule, the IC50 (DMS-79) was greater than 4000 nM, the IC50 (SCC-15) was greater than 4000 nM and the IC50 (RH-1) was greater than 4000 nM. It also gave an IC50 (MS-1) greater than 4000 nM, an IC50 (NCI-H1770) greater than 4000 nM and an IC50 (NEC8) greater than 4000 nM. It also gave an IC50 (UACC-257) of 27.5 nM and an IC50 (CAS-1) greater than 4000 nM.

Work on CC[C@@]1(O)C(=O)OCc2c1cc1n(c2=O)Cc2cc3ccccc3nc2-1 [CAMPTOTHECIN] yielded an IC50 (CW-2) of 35.4 nM, an IC50 (MSTO-211H) of 8.24 nM and an IC50 (MPP-89) of 27.2 nM. For the same molecule, the IC50 (NCI-H226) was 22.5 nM, the IC50 (NCI-H510A) was 1.7 nM and the IC50 (NH-12) was 3.79 nM. For the same molecule, the IC50 (TE-11) was 16.3 nM, the IC50 (LC-2-ad) was 2.81 nM and the IC50 (NB10) was 0.614 nM. The IC50 (NCI-H1648) was 38.1 nM, the IC50 (U-266) was 69.5 nM and the IC50 (NB5) was 1.92 nM. The IC50 (U-87 MG) was 6.63 nM, the IC50 (HH) was 13.5 nM and the IC50 (HEL) was 6.31 nM. The IC50 (SW982) was 4.06 nM, the IC50 (MZ1-PC) was 20.3 nM and the IC50 (COLO-684) was 13.8 nM. For the same molecule, the IC50 (NCI-H1092) was 43.2 nM, the IC50 (OCUB-M) was 38.1 nM and the IC50 (TE-9) was 23.7 nM. For the same molecule, the IC50 (MN-60) was 5.08 nM, the IC50 (MEG-01) was 39.5 nM and the IC50 (DEL) was 0.816 nM. It also gave an IC50 (SNU1) of 1.09 nM, an IC50 (KNS-42) of 33.1 nM and an IC50 (SNB-75) of 17.3 nM. It also gave an IC50 (AM-38) of 4.41 nM, an IC50 (MFM-223) greater than 100 nM and an IC50 (8-MG-BA) of 1.5 nM. For the same molecule, the IC50 (ALL-PO) was 1.53 nM, the IC50 (LU-139) was 16.4 nM and the IC50 (CGTH-W-1) was 3.27 nM. It also gave an IC50 (SW684) greater than 100 nM, an IC50 (LOX IMVI) of 3.72 nM and an IC50 (D283 Med) of 3.2 nM. It also gave an IC50 (TE-1) of 35.1 nM, an IC50 (KU812 cell line) of 8.36 nM and an IC50 (NCI-H23) of 40.7 nM. It also gave an IC50 (KP-N-YS) greater than 100 nM, an IC50 (CTV-1) of 0.905 nM and an IC50 (DB) of 1.16 nM. The IC50 (KURAMOCHI) was greater than 100 nM, the IC50 (GI-ME-N) was 33.9 nM and the IC50 (SW 954) was 20.3 nM. It also gave an IC50 (NOS-1) of 91.9 nM, an IC50 (TK-10) of 55.8 nM and an IC50 (NTERA-2-cl-D1) of 0.274 nM. The IC50 (KALS-1) was 69.9 nM, the IC50 (DMS-79) was 31.8 nM and the IC50 (SCC-15) was 18.6 nM. For the same molecule, the IC50 (RH-1) was 3.86 nM, the IC50 (MS-1) was 2.77 nM and the IC50 (NEC8) was 3.11 nM.
